# Laboratory results from ChEMBL document CHEMBL4311969, “Polygala tenuifolia-Acori tatarinowii herbal pair as an inspiration for substituted cinnamic α-asaronol esters: Design, synthesis, anticonvulsant activity, and inhibition of lactate dehydrogenase study” (Eur J Med Chem, 2019).
# Where “and” joins values, the source holds several entries; their conditions need not be identical. Identical values can stand only once. Calls of active or inactive are those of the source. No cut-off for these calls is given here.
# Assays:
# Homo sapiens [1] = species on record: Homo sapiens; assay: Inhibition of human LDH1 assessed as remaining activity at 0.5 mM using sodium pyruvate as substrate by UV-VIS spectrophotometry method relative to control
# Homo sapiens [2] = species on record: Homo sapiens; assay: Inhibition of human LDH5 assessed as remaining activity at 0.5 mM using sodium pyruvate as substrate by UV-VIS spectrophotometry method relative to control
# [3] = Protective index, ratio of TD50 for neurotoxicity against ip dosed Kunming mouse assessed as time remained in rod measured at 0.5 hrs by rotarod test to ED50 for anticonvulsant activity in ip dosed Kunming mouse assessed as reduction in ScPTZ-induced seizure administered 0.5 hrs before ScPTZ stimulation; type: toxicity, organism-based; details: in vivo, read-out: PI
# [4] = Protective index, ratio of TD50 for neurotoxicity against ip dosed Kunming mouse assessed as time remained in rod measured at 0.5 hrs by rotarod test to ED50 for […] activity in ip dosed Kunming mouse assessed as reduction in formalin-induced paw licking administered 0.5 hrs before formalin stimulation; type: toxicity, organism-based; details: in vivo, read-out: PI
# Mus musculus [5] = assay: Anticonvulsant activity in Kunming mouse assessed as reduction in ScPTZ-induced seizure at 100 mg/kg, ip administered 0.25 to 2 hrs before ScPTZ stimulation relative to control; type: functional
# Mus musculus [6] = assay: Anticonvulsant activity in Kunming mouse assessed as reduction in ScPTZ-induced tonic seizure rate at 300 mg/kg, ip administered 0.5 hrs before ScPTZ stimulation relative to control; type: functional; parameters: scale not given: the % may be the effect or the level left
# Mus musculus [7] = assay: Anticonvulsant activity in ip dosed Kunming mouse assessed as reduction in ScPTZ-induced seizure administered 0.5 hrs before ScPTZ stimulation; type: functional
# Homo sapiens [8] = species on record: Homo sapiens; assay: Inhibition of human LDH5 at 0.5 mM using sodium pyruvate as substrate measured for 60 sec for every 5 mins by LC/MS-MS analysis
# Mus musculus [9] = assay: Anticonvulsant activity in Kunming mouse assessed as reduction in ScPTZ-induced tonic seizure rate at 100 mg/kg, ip administered 0.5 hrs before ScPTZ stimulation relative to control; type: functional; parameters: scale not given: the % may be the effect or the level left
# Mus musculus [10] = assay: Anticonvulsant activity in Kunming mouse assessed as MES-induced hind limb extension at 50 mg/kg, ip administered 0.5 and 2 hrs before MES stimulation relative to control; type: functional
# Mus musculus [11] = assay: Anticonvulsant activity in Kunming mouse assessed as MES-induced hind limb extension at 100 mg/kg, ip administered 0. 5 to 2 hrs before MES stimulation; type: functional, organism-based
# [12] = Protective index, ratio of TD50 for neurotoxicity against ip dosed Kunming mouse assessed as time remained in rod measured at 0.5 hrs by rotarod test to ED50 for anticonvulsant activity in ip dosed Kunming mouse assessed as MES-induced hind limb extension administered 0.5 hrs; type: toxicity, organism-based; details: in vivo, read-out: PI
# Homo sapiens [13] = species on record: Homo sapiens; assay: Inhibition of human LDH5 at 0.5 mM using sodium pyruvate as substrate by UV-VIS spectrophotometry method relative to control
# Homo sapiens [14] = species on record: Homo sapiens; assay: Inhibition of human LDH1 at 0.5 mM using sodium pyruvate as substrate by UV-VIS spectrophotometry method relative to control
# Mus musculus [15] = assay: Anticonvulsant activity in Kunming mouse assessed as reduction in ScPTZ-induced clonic seizure at 300 mg/kg, ip administered 0.5 hrs before ScPTZ stimulation relative to control; type: functional; parameters: scale not given: the % may be the effect or the level left
# Mus musculus [16] = assay: […] activity in ip dosed Kunming mouse assessed as reduction in formalin-induced paw licking administered 0.5 hrs before formalin stimulation; type: functional
# Mus musculus [17] = assay: Anticonvulsant activity in Kunming mouse assessed as reduction in Sc3-MP-induced seizure ip dosed measured at 0.5 hrs before Sc3-MP stimulation; type: functional
# Mus musculus [18] = assay: Anticonvulsant activity in Kunming mouse assessed as MES-induced hind limb extension at 100 mg/kg, ip administered 3 hrs before MES stimulation; type: functional, organism-based
# Mus musculus [19] = assay: Anticonvulsant activity in Kunming mouse assessed as reduction in Sc3-MP-induced tonic seizure rate at 300 mg/kg, ip administered 0.5 hrs before Sc3-MP stimulation relative to control; type: functional; parameters: scale not given: the % may be the effect or the level left
# [20] = Neurotoxicity against ip dosed Kunming mouse assessed as time remained in rod measured at 0.5 hrs by rotarod test; type: toxicity, organism-based; details: in vivo
# Mus musculus [21] = assay: Anticonvulsant activity in Kunming mouse assessed as MES-induced hind limb extension at 50 mg/kg, ip administered 0.5 to 4 hrs before MES stimulation relative to control; type: functional
# Mus musculus [22] = assay: Anticonvulsant activity in ip dosed Kunming mouse assessed as MES-induced hind limb extension administered 0.5 hrs before MES stimulation; type: functional
# [23] = Neurotoxicity against Kunming mouse assessed as time remained in rod at 100 mg/kg, ip administered 0.5 to 2 hrs by rotarod test; type: toxicity, organism-based; details: in vivo
# Mus musculus [24] = assay: Anticonvulsant activity in Kunming mouse assessed as reduction in ScPTZ-induced seizure at 300 mg/kg, ip administered 0.25 to 2 hrs before ScPTZ stimulation relative to control; type: functional; parameters: scale not given: the % may be the effect or the level left
# Mus musculus [25] = assay: Anticonvulsant activity in Kunming mouse assessed as reduction in Sc3-MP-induced clonic seizure rate at 300 mg/kg, ip administered 0.5 hrs before Sc3-MP stimulation relative to control; type: functional; parameters: scale not given: the % may be the effect or the level left
# Homo sapiens [26] = species on record: Homo sapiens; assay: Inhibition of human LDH1 at 0.5 mM using sodium pyruvate as substrate measured for 60 sec for every 5 mins by LC/MS-MS analysis
# Mus musculus [27] = assay: Anticonvulsant activity in Kunming mouse assessed as reduction in ScPTZ-induced seizure at 100 mg/kg, ip administered 0.5 hrs before ScPTZ stimulation relative to control; type: functional; parameters: scale not given: the % may be the effect or the level left
# Mus musculus [28] = assay: Anticonvulsant activity in Kunming mouse assessed as MES-induced hind limb extension at 100 mg/kg, ip administered 0. 5 hrs before MES stimulation relative to control; type: functional
# Mus musculus [29] = assay: Anticonvulsant activity in Kunming mouse assessed as MES-induced hind limb extension at 100 mg/kg, ip administered 0. 5 to 4 hrs before MES stimulation relative to control; type: functional
# Mus musculus [30] = assay: Anticonvulsant activity in Kunming mouse assessed as reduction in ScPTZ-induced seizure at 100 mg/kg, ip administered 1 hr relative to control; type: functional; parameters: scale not given: the % may be the effect or the level left
# [31] = Protective index, ratio of TD50 for neurotoxicity against ip dosed Kunming mouse assessed as time remained in rod measured at 0.5 hrs by rotarod test to ED50 for anticonvulsant activity in ip dosed Kunming mouse assessed as reduction in Sc3-MP-induced seizure administered 0.5 hrs before Sc3-MP stimulation; type: toxicity, organism-based; details: in vivo, read-out: PI
# Mus musculus [32] = assay: Anticonvulsant activity in Kunming mouse assessed as reduction in ScPTZ-induced clonic seizure at 100 mg/kg, ip administered 0.5 hrs before ScPTZ stimulation relative to control; type: functional; parameters: scale not given: the % may be the effect or the level left
# Mus musculus [33] = assay: Anticonvulsant activity in Kunming mouse assessed as MES-induced hind limb extension at 100 mg/kg, ip administered 4 hrs before MES stimulation; type: functional, organism-based
# Mus musculus [34] = assay: Anticonvulsant activity in Kunming mouse assessed as reduction in Sc3-MP-induced seizure at 300 mg/kg, ip administered 0.25 to 2 hrs before Sc3-MP stimulation relative to control; type: functional; parameters: scale not given: the % may be the effect or the level left
SMILES,selectivity ratio at 0.5 h [3],selectivity ratio at 0.5 h [4],Activity (Mus musculus [5]),Activity (Mus musculus [6]),ED50 (Mus musculus [7]),Activity (Mus musculus [9]),Activity (Mus musculus [11]),selectivity ratio at 0.5 h [12],Activity (Mus musculus [15]),ED50 (Mus musculus [16]),ED50 (Mus musculus [17]),Activity (Mus musculus [19]),TD50 at 0.5 h [20],ED50 (Mus musculus [22]),Activity [23],Activity (Mus musculus [24]),Activity (Mus musculus [25]),Activity (Mus musculus [29]),selectivity ratio at 0.5 h [31],Activity (Mus musculus [32]),further results
CCCC(CCC)C(=O)O,,,,,,,,,,,,,,,,,,,,,Activity (Homo sapiens [1]): 100%; Activity (Homo sapiens [2]): 100%
COc1cc(OC)c(OC)cc1/C=C/COC(=O)/C=C/c1ccc(F)cc1,> 5.9,23,inactive,0%,167 mg/kg and 449 µmol/kg,100%,Active,> 28.9,100%,43.4 mg/kg and 116 µmol/kg,> 300 mg/kg and > 806 µmol/kg,75%,> 2690 µmol/kg and > 1000 mg/kg,92.9 µmol/kg and 34.6 mg/kg,Non-Toxic,50%,100%,25 - 100%,5,100%,inhibition (Homo sapiens [8]): 5%; Activity (Mus musculus [10]): 75%; inhibition (Homo sapiens [13]): < 9%; inhibition (Homo sapiens [14]): < 5%; Activity (Mus musculus [18]): Active; Activity (Mus musculus [21]): 50%; inhibition (Homo sapiens [26]): 5%; Activity (Mus musculus [27]): 100%; Activity (Mus musculus [28]): 100%; Activity (Mus musculus [30]): 75%; Activity (Mus musculus [33]): Active
NC(=O)N1c2ccccc2C=Cc2ccccc21 [CARBAMAZEPINE],,,,,> 100 mg/kg and > 423 µmol/kg,,,,,,,,303 µmol/kg,18.1 mg/kg and 76.5 µmol/kg,,,,,,,Activity (Homo sapiens [1]): 100%; Activity (Homo sapiens [2]): 100%
COc1ccc(/C=C/C(=O)OC/C=C/c2cc(OC)c(OC)cc2OC)cc1,> 4.1,> 8.2,inactive,0%,244 mg/kg and 634 µmol/kg,100%,Active,> 14.2,100%,122 mg/kg and 317 µmol/kg,> 300 mg/kg and > 780 µmol/kg,100%,> 1000 mg/kg and > 2600 µmol/kg,70.6 mg/kg and 184 µmol/kg,Non-Toxic,50%,100%,25 - 100%,3.3,100%,Activity (Mus musculus [34]): 0%; inhibition (Homo sapiens [13]): inactive; inhibition (Homo sapiens [14]): inactive; Activity (Mus musculus [18]): Active; Activity (Mus musculus [21]): 50%; Activity (Mus musculus [27]): 100%; Activity (Mus musculus [30]): 75%
COc1cc(OC)c(OC)cc1/C=C/COC(=O)/C=C/c1cc(OC)c(OC)cc1OC,5,12.5,inactive,25%,> 200 mg/kg and 450 µmol/kg to 675 µmol/kg,100%,Active,> 13.6,100%,180 to 225 µmol/kg,> 300 mg/kg and > 675 µmol/kg,75%,> 2250 µmol/kg and > 1000 mg/kg,165 µmol/kg and 73.5 mg/kg,Non-Toxic,50%,100%,25 - 100%,3.3,100%,Activity (Mus musculus [34]): 0%; Activity (Mus musculus [10]): inactive
